From US11130793B2, “GLP-1/GLP-2 dual agonists” (Zealand Pharma A/S, priority 2016, dated 2021)
Square brackets hold non-standard residues; d marks the D form. Peptide text beside a SMILES is read from it. Aib = CC(C)(N)C(=O)O

What was measured:
human GLP-1 receptor = molecular target: T1, human GLP-1 receptor (Homo sapiens, UniProt P43220); assay: GLP-1 receptor potency assay (cAMP AlphaScreen, HEK293 cells stably expressing GLP-1R); format: cell-based; conditions: cAMP response, HEK293 cells expressing human GLP-1R; read-out: EC50 GLP-1
T1 construct: expressed in transfected cells
Procedure, shortened: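 A HEK293 clone stably expressing cloned human GLP-1R (G418-selected) was stimulated with compound. Intracellular cAMP was measured by AlphaScreen. Responses were normalized to positive and vehicle controls, and EC50 and maximal response were fitted by 4-parameter logistic regression.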

human GLP-2 receptor = molecular target: T2, human GLP-2 receptor (Homo sapiens, UniProt O95838, D470N); assay: GLP-2 receptor potency assay (cAMP AlphaScreen, HEK293 cells stably expressing GLP-2R); format: cell-based; conditions: cAMP response, HEK293 cells expressing human GLP-2R
T2 sequence (O95838 1-553 D470N): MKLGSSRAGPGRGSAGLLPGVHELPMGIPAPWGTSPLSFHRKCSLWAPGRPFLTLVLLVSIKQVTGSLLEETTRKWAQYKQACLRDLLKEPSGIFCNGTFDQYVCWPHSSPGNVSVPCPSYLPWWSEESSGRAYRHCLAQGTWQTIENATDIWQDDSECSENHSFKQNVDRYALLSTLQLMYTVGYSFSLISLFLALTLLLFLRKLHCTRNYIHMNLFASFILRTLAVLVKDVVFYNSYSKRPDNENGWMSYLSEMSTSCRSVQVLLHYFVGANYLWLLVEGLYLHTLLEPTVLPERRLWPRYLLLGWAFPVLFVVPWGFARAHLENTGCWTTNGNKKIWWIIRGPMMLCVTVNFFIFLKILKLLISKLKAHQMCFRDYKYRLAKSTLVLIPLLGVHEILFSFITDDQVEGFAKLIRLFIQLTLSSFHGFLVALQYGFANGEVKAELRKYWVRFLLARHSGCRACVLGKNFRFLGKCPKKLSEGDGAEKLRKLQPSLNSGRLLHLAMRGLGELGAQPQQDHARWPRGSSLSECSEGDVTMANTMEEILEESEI
Procedure, shortened: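 HEK293 cells stably expressing human GLP-2R (G418-selected clone); intracellular cAMP measured by AlphaScreen. Responses normalized to positive and vehicle controls; EC50 and maximal response from 4-parameter logistic fit.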

T1 sequence (P43220 24-463): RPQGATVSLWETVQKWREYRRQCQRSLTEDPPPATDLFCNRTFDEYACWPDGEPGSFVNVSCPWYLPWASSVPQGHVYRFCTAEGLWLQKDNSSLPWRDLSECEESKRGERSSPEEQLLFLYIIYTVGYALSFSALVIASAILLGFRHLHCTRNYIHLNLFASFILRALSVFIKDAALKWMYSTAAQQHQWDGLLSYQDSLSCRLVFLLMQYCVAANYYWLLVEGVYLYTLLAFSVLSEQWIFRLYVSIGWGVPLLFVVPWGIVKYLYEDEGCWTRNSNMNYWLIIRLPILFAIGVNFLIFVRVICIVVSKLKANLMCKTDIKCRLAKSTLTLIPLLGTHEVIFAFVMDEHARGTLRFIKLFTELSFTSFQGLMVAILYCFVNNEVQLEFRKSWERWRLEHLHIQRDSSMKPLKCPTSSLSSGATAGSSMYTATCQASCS

| Compound | EC50 (human GLP-1 receptor) [nM] | EC50 (human GLP-2 receptor) [nM] |
| --- | --- | --- |
| CC[C@H](C)[C@H](NC(=O)[C@H](Cc1ccccc1)NC(=O)[C@H](CC(=O)O)NC(=O)[C@H](CCCNC(=N)N)NC(=O)[C@H](C)NC(=O)[C@H](C)NC(=O)[C@H](CCC(N)=O)NC(=O)[C@H](CCC(=O)O)NC(=O)[C@H](CC(=O)O)NC(=O)[C@H](CC(C)C)NC(=O)[C@@H](NC(=O)[C@@H](NC(=O)[C@H](C)NC(=O)[C@H](CC(C)C)NC(=O)[C@H](CCC(=O)O)NC(=O)[C@H](CC(=O)O)NC(=O)[C@@H](NC(=O)[C@H](Cc1ccccc1)NC(=O)[C@@H](NC(=O)CNC(=O)[C@H](CCC(=O)O)NC(=O)C(C)(C)NC(=O)[C@@H](N)Cc1c[nH]cn1)[C@@H](C)O)[C@@H](C)O)[C@@H](C)O)[C@@H](C)CC)C(=O)N[C@@H](C)C(=O)N[C@@H](Cc1c[nH]c2ccccc12)C(=O)N[C@@H](CC(C)C)C(=O)N[C@@H](CCC(N)=O)C(=O)N[C@@H](C)C(=O)N[C@@H](CCC(N)=O)C(=O)N[C@@H](CCCCN)C(=O)N[C@H](C(=O)N[C@H](C(=O)N[C@@H](CC(=O)O)C(=O)O)[C@@H](C)O)[C@@H](C)CC [Compound 29] (H-H[Aib]EGTFTDELATILDEQAARDFIAWLQAQKITD-OH) | 0.044 | 0.11 |
| H-HGEGSFSSELATILDEQAARDFIAWLIQHKITD-NH2 [Compound 40] | 1.4 | 0.05 |
| CC[C@H](C)[C@H](NC(=O)[C@H](CC(C)C)NC(=O)[C@H](Cc1c[nH]c2ccccc12)NC(=O)[C@H](C)NC(=O)[C@@H](NC(=O)[C@H](Cc1ccccc1)NC(=O)[C@H](CC(=O)O)NC(=O)[C@H](CCCNC(=N)N)NC(=O)[C@H](C)NC(=O)[C@H](C)NC(=O)[C@H](CCCCN)NC(=O)CNC(=O)[C@H](CC(=O)O)NC(=O)[C@H](CC(C)C)NC(=O)[C@@H](NC(=O)[C@@H](NC(=O)[C@H](C)NC(=O)[C@H](CC(C)C)NC(=O)[C@H](CCC(=O)O)NC(=O)[C@H](CO)NC(=O)[C@@H](NC(=O)[C@H](Cc1ccccc1)NC(=O)[C@H](CO)NC(=O)CNC(=O)[C@H](CCC(=O)O)NC(=O)C(C)(C)NC(=O)[C@@H](N)Cc1c[nH]cn1)[C@@H](C)O)[C@@H](C)O)[C@@H](C)CC)[C@@H](C)CC)C(=O)N[C@@H](C)C(=O)N[C@@H](Cc1c[nH]cn1)C(=O)N[C@@H](CCCCN)C(=O)N[C@H](C(=O)N[C@H](C(=O)N[C@@H](CC(=O)O)C(=O)O)[C@@H](C)O)[C@@H](C)CC [Compound 31] (H-H[Aib]EGSFTSELATILDGKAARDFIAWLIAHKITD-OH) | 0.02 | 0.078 |
| CC[C@H](C)[C@H](NC(=O)[C@H](Cc1ccccc1)NC(=O)[C@H](CC(=O)O)NC(=O)[C@H](CCCNC(=N)N)NC(=O)[C@H](C)NC(=O)[C@H](C)NC(=O)[C@H](CCC(N)=O)NC(=O)[C@H](CCC(=O)O)NC(=O)[C@H](CC(=O)O)NC(=O)[C@H](CC(C)C)NC(=O)[C@@H](NC(=O)[C@@H](NC(=O)[C@H](C)NC(=O)[C@H](CC(C)C)NC(=O)[C@H](CCC(=O)O)NC(=O)[C@H](CO)NC(=O)[C@@H](NC(=O)[C@H](Cc1ccccc1)NC(=O)[C@H](CO)NC(=O)CNC(=O)[C@H](CCC(=O)O)NC(=O)C(C)(C)NC(=O)[C@@H](N)Cc1c[nH]cn1)[C@@H](C)O)[C@@H](C)O)[C@@H](C)CC)C(=O)N[C@@H](C)C(=O)N[C@@H](Cc1c[nH]c2ccccc12)C(=O)N[C@@H](CC(C)C)C(=O)N[C@@H](CCC(N)=O)C(=O)N[C@@H](C)C(=O)N[C@@H](Cc1c[nH]cn1)C(=O)N[C@@H](CCCCN)C(=O)N[C@H](C(=O)N[C@H](C(=O)N[C@@H](CC(=O)O)C(=O)O)[C@@H](C)O)[C@@H](C)CC [Compound 24] (H-H[Aib]EGSFTSELATILDEQAARDFIAWLQAHKITD-OH) | 0.042 | 0.049 |
| CC[C@H](C)[C@H](NC(=O)[C@H](Cc1ccccc1)NC(=O)[C@H](CC(=O)O)NC(=O)[C@H](CCCNC(=N)N)NC(=O)[C@H](C)NC(=O)[C@H](C)NC(=O)[C@H](CCC(N)=O)NC(=O)[C@H](CCC(=O)O)NC(=O)[C@H](CC(=O)O)NC(=O)[C@H](CC(C)C)NC(=O)[C@@H](NC(=O)[C@@H](NC(=O)[C@H](C)NC(=O)[C@H](CC(C)C)NC(=O)[C@H](CCC(=O)O)NC(=O)[C@H](CO)NC(=O)[C@@H](NC(=O)[C@H](Cc1ccccc1)NC(=O)[C@@H](NC(=O)CNC(=O)[C@H](CCC(=O)O)NC(=O)C(C)(C)NC(=O)[C@@H](N)Cc1c[nH]cn1)[C@@H](C)O)[C@@H](C)O)[C@@H](C)O)[C@@H](C)CC)C(=O)N[C@@H](C)C(=O)N[C@@H](Cc1c[nH]c2ccccc12)C(=O)N[C@@H](CC(C)C)C(=O)N[C@@H](Cc1c[nH]cn1)C(=O)N[C@@H](CCC(N)=O)C(=O)N[C@@H](Cc1c[nH]cn1)C(=O)N[C@@H](CCCCN)C(=O)N[C@H](C(=O)N[C@H](C(=O)N[C@@H](CC(=O)O)C(=O)O)[C@@H](C)O)[C@@H](C)CC [Compound 21] (H-H[Aib]EGTFTSELATILDEQAARDFIAWLHQHKITD-OH) | 0.049 | 0.11 |

Now those with a lower EC50 (human GLP-1 receptor), led by results:

| EC50 (human GLP-1 receptor) [nM] | EC50 (human GLP-2 receptor) [nM] | Compound |
| --- | --- | --- |
| 0.016 | 0.083 | CC[C@H](C)[C@H](NC(=O)[C@H](Cc1ccccc1)NC(=O)[C@H](CC(=O)O)NC(=O)[C@H](CCCNC(=N)N)NC(=O)[C@H](C)NC(=O)[C@H](C)NC(=O)[C@H](CCC(N)=O)NC(=O)[C@H](CCC(=O)O)NC(=O)[C@H](CC(=O)O)NC(=O)[C@H](CC(C)C)NC(=O)[C@@H](NC(=O)[C@@H](NC(=O)[C@H](C)NC(=O)[C@H](CC(C)C)NC(=O)[C@H](CCC(=O)O)NC(=O)[C@H](CO)NC(=O)[C@@H](NC(=O)[C@H](Cc1ccccc1)NC(=O)[C@@H](NC(=O)CNC(=O)[C@H](CCC(=O)O)NC(=O)C(C)(C)NC(=O)[C@@H](N)Cc1c[nH]cn1)[C@@H](C)O)[C@@H](C)O)[C@@H](C)O)[C@@H](C)CC)C(=O)N[C@@H](C)C(=O)N[C@@H](Cc1c[nH]c2ccccc12)C(=O)N[C@@H](CC(C)C)C(=O)N[C@@H](CCC(N)=O)C(=O)N[C@@H](C)C(=O)N[C@@H](Cc1c[nH]cn1)C(=O)N[C@@H](CCCCN)C(=O)N[C@H](C(=O)N[C@H](C(=O)N[C@@H](CC(=O)O)C(=O)O)[C@@H](C)O)[C@@H](C)CC [Compound 13] (H-H[Aib]EGTFTSELATILDEQAARDFIAWLQAHKITD-OH) |
| 0.008 | 0.062 | CC[C@H](C)[C@H](NC(=O)[C@H](CC(C)C)NC(=O)[C@H](Cc1c[nH]c2ccccc12)NC(=O)[C@H](C)NC(=O)[C@@H](NC(=O)[C@H](Cc1ccccc1)NC(=O)[C@H](CC(=O)O)NC(=O)[C@H](CCCNC(=N)N)NC(=O)[C@H](C)NC(=O)[C@H](C)NC(=O)[C@H](CCC(N)=O)NC(=O)[C@H](CCC(=O)O)NC(=O)[C@H](CC(=O)O)NC(=O)[C@H](CC(C)C)NC(=O)[C@@H](NC(=O)[C@@H](NC(=O)[C@H](C)NC(=O)[C@H](CC(C)C)NC(=O)[C@H](CCC(=O)O)NC(=O)[C@H](CO)NC(=O)[C@@H](NC(=O)[C@H](Cc1ccccc1)NC(=O)[C@H](CO)NC(=O)CNC(=O)[C@H](CCC(=O)O)NC(=O)C(C)(C)NC(=O)[C@@H](N)Cc1c[nH]cn1)[C@@H](C)O)[C@@H](C)O)[C@@H](C)CC)[C@@H](C)CC)C(=O)N[C@@H](C)C(=O)N[C@@H](CCC(N)=O)C(=O)N[C@@H](CCCCN)C(=O)N[C@H](C(=O)N[C@H](C(=O)N[C@@H](CC(=O)O)C(=O)O)[C@@H](C)O)[C@@H](C)CC [Compound 25] (H-H[Aib]EGSFTSELATILDEQAARDFIAWLIAQKITD-OH) |
| 0.005 | 0.15 | CC[C@H](C)[C@H](NC(=O)[C@H](CC(C)C)NC(=O)[C@H](Cc1c[nH]c2ccccc12)NC(=O)[C@H](C)NC(=O)[C@@H](NC(=O)[C@H](Cc1ccccc1)NC(=O)[C@H](CC(=O)O)NC(=O)[C@H](CCCNC(=N)N)NC(=O)[C@H](C)NC(=O)[C@H](C)NC(=O)[C@H](CCC(N)=O)NC(=O)[C@H](CCC(=O)O)NC(=O)[C@H](CC(=O)O)NC(=O)[C@H](CC(C)C)NC(=O)[C@@H](NC(=O)[C@@H](NC(=O)[C@H](C)NC(=O)[C@H](CC(C)C)NC(=O)[C@H](CCC(=O)O)NC(=O)[C@H](CO)NC(=O)[C@@H](NC(=O)[C@H](Cc1ccccc1)NC(=O)[C@@H](NC(=O)CNC(=O)[C@H](CCC(=O)O)NC(=O)C(C)(C)NC(=O)[C@@H](N)Cc1c[nH]cn1)[C@@H](C)O)[C@@H](C)O)[C@@H](C)O)[C@@H](C)CC)[C@@H](C)CC)C(=O)N[C@@H](C)C(=O)N[C@@H](CCC(N)=O)C(=O)N[C@@H](CCCCN)C(=O)N[C@H](C(=O)N[C@H](C(=O)N[C@@H](CC(=O)O)C(=O)O)[C@@H](C)O)[C@@H](C)CC [Compound 19] (H-H[Aib]EGTFTSELATILDEQAARDFIAWLIAQKITD-OH) |
